Reference: paper PMC8203924, “Development of a Potent Antimicrobial Peptide With Photodynamic Activity” (Frontiers in Microbiology, 2021)
Values after ≈ are worked out from the molar mass of the structure shown. Like-named read-outs stand apart in the source and are kept apart here. Peptide text beside a SMILES is read from it. * marks the point of attachment. X1 = O=C(c1ccc2c3nc4nc(nc5[nH]c(nc6nc(nc([nH]3)c2c1)-c1ccccc1-6)c1ccccc51)-c1ccccc1-4)*

Assays:
[1] = test system: S. aureus (ATCC 6538); type: cell-based, Staphylococcus aureus; settings: ATCC 6538, 20 h
Procedure: (§1) E. coli (ATCC 8739), S. aureus (ATCC 6538), or MRSA (ATCC 33591) were grown in LB culture medium at 37°C under aerobic conditions overnight (8–12 h) before use.
(§2) Bactericidal kinetics assay was also determined.

[2] = test system: E. coli (ATCC 8739); type: cell-based, Escherichia coli; settings: ATCC 8739, 20 h
Procedure: as §1, §2

[3] = test system: MRSA (ATCC 33591); type: cell-based, methicillin-resistant S. aureus; settings: ATCC 33591, 20 h
Procedure: as §1, §2

[4] = test system: E. coli; settings: 1-MIC, 12 h, OD600 hourly, 37°C
Procedure: (§6) Bactericidal kinetics assay was also determined. Different final concentrations (0, 1/8-, 1/4-, 1/2-, 1-MIC) of the peptides were added to the bioluminescent S. aureus suspension (10^3 CFU/ml). The bacteria were incubated at 37°C and 150 rpm. An aliquot of 100 μl of the suspension was taken out to measure the absorption at 600 nm on microplate reader once an hour for up to 12 h.

[5] = mouse, in vivo, iv
Procedure: The mice were sacrificed at 2, 4, 8, 12, 24, 36, 48, and 72 h post-injection, and their primary organs (liver, kidneys, heart, spleen, lung, stomach, intestines) or muscles were collected postmortem. Meanwhile, their blood was collected through enucleation of eyeballs. These samples were then washed with saline and imaged on the three-dimension FMT 2500TM LX (PerkinElmer, Waltham, MA, United States) using the same acquisition settings as the in vivo imaging to quantitate the peptide average concentrations in the samples.

[6] = test system: bioluminescent S. aureus; type: cell-based, Staphylococcus aureus; settings: without light; for higher efficacy than compound 1 or 2: on both bacterial strains (bioluminescent S. aureus and E. coli); for IC50: bioluminescent S. aureus, 10^6 CFU/ml in PBS, peptides in PBST, luminescence monitored 1 h, triplicate, mean ± SD, read-out: IC50 against S. aureus
Source text: The side chain-protected peptides G3(RW)3, G3(RW)3K5, and G3K5(RW)3 on Wang resin were obtained commercially (GL Biochem Ltd., Shanghai). Beta-carboxy phthalocyanine zinc was developed by us by a method previously reported ([Chen et al., 2006]). Beta-carboxy phthalocyanine (β-PcCOOH) was purified on a silica column with N,N-dimethylformamide (DMF):acetone (3:1) as the second band. All the chemical reagents were analytical grade and used without further purification. Distilled water was used throughout the experiments. E. coli (ATCC 8739), S. aureus (ATCC 6538), and MRSA (ATCC 33591) were acquired from ATCC. Bioluminescent strains of E. coli DH5α were constructed by transformation of plasmid pAKlux2.1, which contained a complete bacterial luciferase operon as described ([Ullah et al., 2018]; [Chen et al., 2019]), and S. aureus Xen29 (NCTC8532) containing a stable copy of the modified Photorhabdus luminescens luxABCDE operon was purchased from Shanghai Biofeng Company.
(§3) Bioluminescent bacteria were grown in Luria-Bertani (LB) culture medium at 37°C under aerobic conditions overnight 8–12 diluted 100 times to 10^6 colony-forming units (CFU)/ml in phosphate buffered saline (PBS) before incubating with the peptides. The peptide or new compounds were first dissolved in PBST (PBS with 0.05% Tween 20) to prepare 1-mM stock solutions, and the solutions were then further diluted up to 100 μM with PBST. The bacterial suspensions were then incubated in 96-well plates with the compound peptides. The luminescence was monitored for 1 h to measure the bacterial viability. The percentage of survived bacteria was determined from the luminescence intensities of the treated group divided by the luminescence signal of the controls.

[7] = test system: S. aureus
[8] = test system: bioluminescent S. aureus; type: cell-based, Staphylococcus aureus; settings: for IC50: bioluminescent S. aureus, 680 nm LED 6 min, 12 J/cm^2, 33.33 mW/cm^2, after 10 min incubation, triplicate, mean ± SD, read-out: IC50 against S. aureus upon illumination
Procedure: as §3
(§4) For photo-assisted antimicrobial activity measurements against bioluminescent bacteria, we used a procedure similar to as above, but with illumination using LM-LED light (680 nm) for 6 min (light dose of 12 J/cm^2, 33.33 mW/cm^2) after 10 min incubation of the bacterial suspensions and the compound peptides.

[9] = test system: MRSA (ATCC 33591); assay: Photo-assisted antimicrobial activity by colony counting method; type: cell-based, methicillin-resistant S. aureus; settings: 2 μM, 6 min illumination, 12 J/cm^2, 33.33 mW/cm^2, colony counting, start 10^6 CFU/ml
Procedure: as §1
(§5) Photo-assisted antimicrobial activity assays of the compound peptides against ATCC standard strains were carried out by colony counting method. The agar plates with only bacterial suspension were used as negative control. The peptide and bacterial suspension were incubated together in 96-well microplates first. Under the same conditions, for comparison, the other groups were set without light. After incubation for 40 min at room temperature, aliquots of 100 μl were taken out of the solutions and placed on agar plates at serial dilutions, then incubated at 37°C for 18–24 h. Numbers of colonies were counted, and the antimicrobial rate (R) was calculated: R = (B-A)/B × 100%. Here, A is the bacterial colony number on the agar plates containing various concentrations of the peptides, and B is the colony number for negative control.

[10] = in vitro; settings: human, human embryonic lung fibroblast (HELF) cells
Procedure: The culture medium was used as control. The cells were washed with PBS, then were divided into two groups, and the light group was exposed to 12 J/cm^2 of 680 nm light illumination. After another 12-h incubation, the culture medium was refreshed and 3-(4,5-dimethylthiazol-2-yl)-2,5-diphenyltetrazolium bromide (MTT) was added. After 4-h incubation at 37°C, the absorbance at 490 nm was measured on a multi-mode microplate reader (BioTek Synergy 4). The inhibition rate of cell growth was calculated by the following equation:
Cell viability%=Mean absorbance value of treatment group/Mean absorbance value of control×100%

[11] = mouse, in vivo, iv; remark: listed apart in the source
Procedure: The blood of mice was diluted 10 times with DMF, immediately after collection, and then centrifuged to get supernatant for further determination. The supernatant was measured by fluorescence spectrophotometer F-4600 (HITACHI, Tokyo, Japan). The fluorescence intensity was recorded. The excitation and emission wavelengths were set at 610 and 680 nm. […] The plasma half-life (t1/2) can be calculated by the following formula:
Here, k represents the slope of fluorescence intensity-log (concentration) regression equation.

[12] = test system: S. aureus; settings: 1-MIC, 12 h, OD600 hourly, 37°C
Procedure: as §6

[13] = test system: E. coli (ATCC 8739); settings: 2 μM
Procedure: as §1, §5

[14] = test system: S. aureus (ATCC 6538); settings: 2 μM
Procedure: as §1, §5

[15] = test system: bioluminescent E. coli; assay: Photo-assisted antimicrobial activity against bioluminescent bacteria; type: cell-based, Escherichia coli; settings: 680 nm LED 6 min, 12 J/cm^2, 33.33 mW/cm^2, after 10 min incubation, triplicate, mean ± SD, read-out: IC50 against E. coli upon illumination
Procedure: as §3, §4

[16] = test system: bioluminescent E. coli; type: cell-based, Escherichia coli; settings: 10^6 CFU/ml in PBS, peptides in PBST, luminescence monitored 1 h, without light, triplicate, mean ± SD, read-out: IC50 against E. coli
Source text: The side chain-protected peptides G3(RW)3, G3(RW)3K5, and G3K5(RW)3 on Wang resin were obtained commercially (GL Biochem Ltd., Shanghai). Beta-carboxy phthalocyanine zinc was developed by us by a method previously reported ([Chen et al., 2006]). Beta-carboxy phthalocyanine (β-PcCOOH) was purified on a silica column with N,N-dimethylformamide (DMF):acetone (3:1) as the second band. All the chemical reagents were analytical grade and used without further purification. Distilled water was used throughout the experiments. E. coli (ATCC 8739), S. aureus (ATCC 6538), and MRSA (ATCC 33591) were acquired from ATCC. […]
Bioluminescent bacteria were grown in Luria-Bertani (LB) culture medium at 37°C under aerobic conditions overnight 8–12 diluted 100 times to 10^6 colony-forming units (CFU)/ml in phosphate buffered saline (PBS) before incubating with the peptides. […] The luminescence was monitored for 1 h to measure the bacterial viability. The percentage of survived bacteria was determined from the luminescence intensities of the treated group divided by the luminescence signal of the controls.

[17] = 36-s exposure or 0.60 J/cm^2, 33.33 mW/cm^2
[18] = 6 min illumination, 12 J/cm^2, 33.33 mW/cm^2, colony counting
[19] = 6 min illumination, 12 J/cm^2, 33.33 mW/cm^2, colony counting, start 10^6 CFU/ml

Compound	MIC against S. aureus [1]	MIC against E. coli [2]	MIC against MRSA [3]	higher efficacy than compound 1 or 2 [6]	IC50 [6]	IC50 [8]	IC50 [15]	IC50 [16]	also measured
N=C(N)NCCC[C@H](NC(=O)CNC(=O)CNC(=O)CNC(=O)c1ccc2c3nc4nc(nc5[nH]c(nc6nc(nc([nH]3)c2c1)-c1ccccc1-6)c1ccccc51)-c1ccccc1-4)C(=O)N[C@@H](Cc1c[nH]c2ccccc12)C(=O)N[C@@H](CCCNC(=N)N)C(=O)N[C@@H](Cc1c[nH]c2ccccc12)C(=O)N[C@@H](CCCNC(=N)N)C(=O)N[C@@H](Cc1c[nH]c2ccccc12)C(=O)O [Compound 3, PcG3(RW)3] (X1-GGGRWRWRW-OH)	12.0 µM (≈ 21.1 µg/mL)	48.0 µM (≈ 84.3 µg/mL)	24.0 µM (≈ 42.2 µg/mL)	–	–	–	–	–	–
N=C(N)NCCC[C@H](NC(=O)[C@H](Cc1c[nH]c2ccccc12)NC(=O)[C@H](CCCNC(=N)N)NC(=O)[C@H](Cc1c[nH]c2ccccc12)NC(=O)[C@H](CCCNC(=N)N)NC(=O)[C@H](CCCCN)NC(=O)[C@H](CCCCN)NC(=O)[C@H](CCCCN)NC(=O)[C@H](CCCCN)NC(=O)[C@H](CCCCN)NC(=O)CNC(=O)CNC(=O)CNC(=O)c1ccc2c3nc4nc(nc5[nH]c(nc6nc(nc([nH]3)c2c1)-c1ccccc1-6)c1ccccc51)-c1ccccc1-4)C(=O)N[C@@H](Cc1c[nH]c2ccccc12)C(=O)O [Compound 4, PcG3K5(RW)3] (X1-GGGKKKKKRWRWRW-OH)	8.0 µM (≈ 19.2 µg/mL)	16.1 µM (≈ 38.6 µg/mL)	16.1 µM (≈ 38.6 µg/mL)	2–4 times	–	–	–	–	bacterial proliferation of E. coli at MIC [4]: completely stopped; time to be cleared out of organs [5]: ≤ 72 h; wound recovery with one-time illumination ([7]; 20 μM local, one-time 680-nm illumination 12.0 J/cm^2, 33.33 mW/cm^2, vs without illumination): better wound recovery than the ones without illumination at the first 3 days after surgery; wound healing of S. aureus infected excisional wounds ([7]; 50 μl of 20 μM local administration, without light, n = 6 per group): promoted wound healing and prevented or alleviated the infection; increase of inhibitory efficacy upon illumination ([8]; red light / LED illumination vs no light, S. aureus and E. coli): ~ 140 fold; log reduction of MRSA [9]: up to 5 log; viability at 24 h [10]: > 90%; plasma half-life (t1/2) [11]: 11.09 h; bacterial proliferation of S. aureus at MIC [12]: completely stopped; elimination of E. coli at low dose of light [13, 17]: about 80%; reduction of E. coli [13, 18]: 99.9%; log reduction of E. coli [13, 19]: 3 log; elimination of S. aureus at low dose of light [14, 17]: ~95%; reduction of S. aureus [14, 18]: ≤ 99.999%; log reduction of S. aureus [14, 19]: up to 5 log
N=C(N)NCCC[C@H](NC(=O)CNC(=O)CNC(=O)CNC(=O)c1ccc2c3nc4nc(nc5[nH]c(nc6nc(nc([nH]3)c2c1)-c1ccccc1-6)c1ccccc51)-c1ccccc1-4)C(=O)N[C@@H](Cc1c[nH]c2ccccc12)C(=O)N[C@@H](CCCNC(=N)N)C(=O)N[C@@H](Cc1c[nH]c2ccccc12)C(=O)N[C@@H](CCCNC(=N)N)C(=O)N[C@@H](Cc1c[nH]c2ccccc12)C(=O)N[C@@H](CCCCN)C(=O)N[C@@H](CCCCN)C(=O)N[C@@H](CCCCN)C(=O)N[C@@H](CCCCN)C(=O)N[C@@H](CCCCN)C(=O)O [Compound 5, PcG3(RW)3K5] (X1-GGGRWRWRWKKKKK-OH)	16.1 µM (≈ 38.6 µg/mL)	16.1 µM (≈ 38.6 µg/mL)	16.1 µM (≈ 38.6 µg/mL)	2–4 times	–	–	–	–	–
H-GGGKKKKKRWRWRW-OH [Compound 1, G3K5(RW)3]	107.8 µM	>215.6 µM	107.8 µM	–	45.6 ± 2.9 µM	44.6 ± 4.72 µM	59.2 ± 1.97 µM	61.8 ± 4.3 µM	–
H-GGGRWRWRWKKKKK-OH [Compound 2, G3(RW)3K5]	107.8 µM	>215.6 µM	107.8 µM	–	68 ± 3.2 µM	71.6 ± 2.82 µM	129 ± 30.3 µM	135 ± 25.3 µM	–
